From patent US20240124528A1, “ANTAGONIST OF INTERLEUKIN-17B RECEPTOR (IL-17RB) AND USE THEREOF” (Academia Sinica, priority 2020, published 2024)

Key:
[1] = biological target: T1, interaction between IL-17RB and MLK4 (Homo sapiens, UniProt Q5TCX8); assay: Co-immunoprecipitation of IL-17RB and MLK4 after peptide pretreatment and rIL-17B; type: cell-based; conditions: 293T cells expressing Flag-MLK4 and HA-IL-17RB; peptides 0, 0.1, 1, 10, 50, 100 ng/ml for 30 mins, then rIL-17B 30 mins
T1 construct: host or cells: 293T (HEK293T)
T1 sequence (Q5TCX8 whole entry): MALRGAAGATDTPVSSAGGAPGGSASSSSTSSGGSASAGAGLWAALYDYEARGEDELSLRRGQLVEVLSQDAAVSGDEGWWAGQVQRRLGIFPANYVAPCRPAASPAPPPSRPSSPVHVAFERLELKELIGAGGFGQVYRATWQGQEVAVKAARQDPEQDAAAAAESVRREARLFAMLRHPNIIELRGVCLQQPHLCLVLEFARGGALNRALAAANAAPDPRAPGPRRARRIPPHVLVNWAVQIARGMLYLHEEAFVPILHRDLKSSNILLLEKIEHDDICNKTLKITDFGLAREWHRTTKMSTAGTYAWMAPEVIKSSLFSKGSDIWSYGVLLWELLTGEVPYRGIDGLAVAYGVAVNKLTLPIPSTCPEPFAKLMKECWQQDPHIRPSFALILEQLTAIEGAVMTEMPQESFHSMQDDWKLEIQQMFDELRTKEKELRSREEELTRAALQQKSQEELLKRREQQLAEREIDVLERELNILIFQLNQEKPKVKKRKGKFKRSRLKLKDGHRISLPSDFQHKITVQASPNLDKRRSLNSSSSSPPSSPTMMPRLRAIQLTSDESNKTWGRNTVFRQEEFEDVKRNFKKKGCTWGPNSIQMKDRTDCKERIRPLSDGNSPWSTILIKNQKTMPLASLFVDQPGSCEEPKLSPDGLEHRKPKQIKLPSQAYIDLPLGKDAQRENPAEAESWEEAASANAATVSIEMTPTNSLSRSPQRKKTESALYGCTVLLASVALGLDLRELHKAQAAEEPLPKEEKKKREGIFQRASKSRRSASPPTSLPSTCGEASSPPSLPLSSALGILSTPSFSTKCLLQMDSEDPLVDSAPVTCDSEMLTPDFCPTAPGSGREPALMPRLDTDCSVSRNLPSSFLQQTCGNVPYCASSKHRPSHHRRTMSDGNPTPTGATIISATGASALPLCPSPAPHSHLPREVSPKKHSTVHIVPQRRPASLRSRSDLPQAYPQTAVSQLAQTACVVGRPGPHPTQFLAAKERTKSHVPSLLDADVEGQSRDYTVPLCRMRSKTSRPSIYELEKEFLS
Source text: FIGS. 7A to 7J include charts showing that disruption of the interaction between IL-17RB and MLK4 by the loop peptide blocks oncogenic progression. (FIG. 7A) Peptides TAT48-57 (Control) (SEQ ID NO: 21) and TAT-IL-17RB403-416 (Loop) (SEQ ID NO: 30) used for the following experiments. (FIG. 7B) Immunoblotting analysis of IL-17RB binding to MLK4 with Loop peptide treatment. 293T cells expressing Flag-MLK4 and HA-IL-17RB were pretreated with the control and loop peptides with different dose (0, 0.1, 1, 10, 50, 100 ng/ml) for 30 mins, and then added rIL-17B for 30 mins. The cell lysates were reciprocally co-immunoprecipitated with anti-Flag and anti-HA and blotted with the indicated antibodies or directly immunoblotted with the indicated antibodies as the input controls. […] CCL20 and TFF/mRNA expression of these cells were measured by RT-qPCR (n=3) (FIG. 7D), the same cells were for invasion assay (n=4) (FIG. 7E) and SACF assay (n=4) (FIG. 7F). […] (FIG. 7I) The experimental EKP mice (n=7 for each group) were euthanized at Day 56, and the metastatic tumor nodules in the lungs were counted. […]
Whole-cell lysates were prepared as previously described (6, 7). […] After extensive washing with diluted lysis buffer (0.01% Triton X-100), IL-17RB and its associated proteins were analyzed by immunoblotting analysis. […]

CFPAC1-GFP/Luc cells = assay: Orthotopic CFPAC1-GFP/Luc xenograft pancreatic cancer model in NOD-SCID mice; type: in vivo, mouse
[2] = system: DCs derived from mouse bone marrow; type: cell-based
Description: (§1) (FIG. 24A) Flow chart describing the experimental design for testing the effects of anti-IL-17RB antibody and loop peptide on IL-17E-induced expression of IL-4 and IL-13 in peripheral blood mononuclear cells (PBMCs). PBMCs were purified by Ficoll-paque and used for the following experiments. (FIG. 24B to FIG. 24E) IL-4 and IL-13 expression induced by IL-17B or IL-17E in the PBMCs was determined by RT-qPCR after mIgG or anti-IL-17RB antibody pretreatment (FIG. 24B and FIG. 24C) and control or loop peptide pretreatment (FIG. 24D and FIG. 24E), respectively. (FIG. 24F and FIG. 24G) The DCs derived from mouse bone marrow were treated with the control or loop peptides, separately. (FIG. 24F) Flow cytometry analysis using anti-CD80, CD86 and MHC-II antibodies was performed to determine the activity of the DCs after incubation with the control or loop peptides for 48 hrs. (FIG. 24G) The activities of DCs were quantified by gating the area of the CD80, CD86 and MHC-II-positive cells (n=3). Data are mean±s.d.

[3] = system: peripheral blood mononuclear cells (PBMCs); assay: IL-17E-induced IL-4 and IL-13 mRNA expression in PBMCs (RT-qPCR); type: cell-based; conditions: peptide pretreatment
Description: as §1

[4] = NOD-SCID mice, peptide 160 μg/100 μl PBS i.p. twice per week

In the case of “RKKRRQRRRVCDGTCGKSEGSPS (IL-17RB inhibitory peptide, fusion protein) [loop peptide]”, the “interaction between IL-17RB and MLK4 (co-IP)” value [1] was “disrupted”, the “distant metastases of the pancreatic tumors to liver and lung (IVIS)” value (CFPAC1-GFP/Luc cells; NOD-SCID mice euthanized at Day 34) was “significantly suppressed” and the “expression of phospho-IL-17RB in the pancreatic tumors (IHC)” value (CFPAC1-GFP/Luc cells; [4]) was “inhibited”. The “lifespan (Kaplan-Meier survival analysis)” value (CFPAC1-GFP/Luc cells; [4]) was “prolonged”, the “tumor growth (IVIS bioluminescence)” value (CFPAC1-GFP/Luc cells; [4]) was “significantly impeded” and the pancreatic tumor progression (CFPAC1-GFP/Luc cells; orthotopic xenograft, NOD-SCID mice) was “suppresses”. The “bone marrow-derived dendritic cell activation (CD80, CD86, MHC-II)” value [2] was “does not suppress IL-17E-induced IL-4 and IL-13 mRNA expression in PBMCs or affect” and the “IL-17E-induced IL-4 and IL-13 mRNA expression” value [3] was “does not suppress”.
